# Measured values taken from patent US20250161419A1, “SERPIN PEPTIDES AND METHODS OF USING THE SAME” (SERPIN PHARMA, LLC, priority 2022, published 2025).
# Key:
# TLR4 = assay: Immunoblot of injured sciatic nerve two days after PNL, TLR4; format: in vivo, mouse; details: 2 μg/g s.c.
# Protocol: Neuropathic pain model: Mice (n=30) were randomly assigned to two different groups: SP163M (2 μg/g; s.c. 100 μl) and vehicle (H20 s.c. 100 μl). Mice were treated 1 h prior to partial nerve ligation (PNL) and then daily at least 1 h prior to behavior testing for 2 weeks. PNL studies were performed as previously disclosed^59 and adapted for mice.^57 Male mice were anesthetized with 3% isoflurane (Vetone, USA) in 1.5 L/min oxygen (Praxair, USA) and maintained with 2.5% isoflurane. An incision was made along the long axis of the femur. […] Filaments were presented in a consecutive fashion either ascending or descending using the up-down method as previously disclosed^60 and modified for mice.^57,61 The filament that caused paw withdrawal 50% of the time (the 50% PWT) was determined. […]
# Immunoblots of sciatic nerve: Sciatic nerves were harvested 2 days after PNL to identify early molecular and cellular changes. […] Nerves were lysed in RIPA buffer and equal amounts of protein (20 μg) from nerves lysates, as determined by BCA Protein Assay (Bio-Rad, Hercules, CA, USA), were subjected to 10% SDS-PAGE and electro-transferred to nitrocellulose membranes. […] Primary antibodies were detected with HRP-conjugated species-specific secondary antibodies (Cell Signaling Technology, Danvers, MA, USA; cat #7076S or 4S; 1:5000). […]
# IL-4 = assay: MC903 AD model, IL-4 in ear lysate by ELISA; format: in vivo, mouse; details: topical, vs MC903
# Protocol: Mice were treated with SP16 in 70% EtOH (MC903+SP16) or drug vehicle (MC903). Normal control (NC) mice were treated with EtOH only. Ears were measured for PAR2 protein expression through western blot analysis (quantitative analysis after normalization to beta-actin shown) (n=3-5). TSLP was measured in both the ears and serum by ELISA (N=3-5). Scratching was assessed over a 3 minute period after a 5-minute acclimatization period and the number of scratches are shown (n=3). IL-4 was measured in ear lysate via ELISA (N=3-5).
# TSLP = assay: Poly I:C-induced TSLP production by SPINK7 knockout EPC2 cells (ELISA); format: cell-based, human; details: Poly I:C 5 μg/ml, 8 hours
# Protocol: FIG. 12A: Poly I:C-induced TSLP production by SPINK7 knockout EPC2 cells (Human esophageal epithelial cells). SPINK7 KO cells and control cells were plated in high calcium and high density, for 48 hours before being treated with SP16 or 7G and Poly I:C (5 μg/ml, or untreated) for 8 hours. TSLP production in the supernatant was measured by ELISA. FIG. 12B: primary esophageal epithelial cells (EPC2) were treated with SP16 and then stimulated with IL-13, a TH2 response mediated cytokine, to induce CCL26.
# SP16 reduces several key cytokines involved in allergic responses. Upon knockout of SPINK7, esophageal epithelial cells release exacerbated levels of TSLP. TSLP is a key mediator of immune cell responses upon activation to an insult such as allergens.
# IL-1a = assay: OVA-challenge allergic inflammation model, IL-1a in BALF by ELISA; format: in vivo, mouse; details: OVA-challenge in sensitized mice, treated during challenge phase, vs vehicle
# Protocol: Mice were subjected to the OVA-challenge allergic inflammation model and treated with vehicle or SP16 during the challenge phase. The bronchoalveolar lavage fluid (BALF) was analyzed for cytokines via ELISA.
# The ova-induced model of allergic inflammation is a widely used model of eosinophilic driven allergic diseases.
sequence,measurement,setting,value
VKFNKPFVFLMIEQNTK (SP16 peptide core sequence including the LRP1 binding site; listed as Homo sapiens),TLR4 expression in injured sciatic nerve (immunoblots),TLR4,robustly down regulated TLR4 expression
same,IL-4 release in the skin tissue (ear lysate),IL-4,significantly reduced
same,Poly I:C mediated TSLP release,TSLP,effective in significantly reducing Poly 1:C mediated TSLP and CCL26 release
same,IL-1a in BALF,IL-1a,significantly reduces IL-1a
